Patent publication US11976061B2, “Preparation of benzimidazolone derivatives as novel diacylglyceride O-acyltransferase 2 inhibitors” (Merck Sharp & Dohme LLC, priority 2020, dated 2024)

What follows are compounds tested against T1, human DGAT2 (hDGAT2) (Homo sapiens, UniProt Q96PD7) (assay: DGAT2 Enzymatic Activity Assay). Settings: membrane prep of Sf-9 cells expressing hDGAT2; 25 μM diolein, 5 μM 13C oleoyl-CoA; 13C18-triolein by LC/MS/MS; read-out: DGAT2 IC50.
T1 construct: made in house; host or cells: Sf-9 insect cells (baculovirus), membrane fraction
T1 sequence (Q96PD7 1-388): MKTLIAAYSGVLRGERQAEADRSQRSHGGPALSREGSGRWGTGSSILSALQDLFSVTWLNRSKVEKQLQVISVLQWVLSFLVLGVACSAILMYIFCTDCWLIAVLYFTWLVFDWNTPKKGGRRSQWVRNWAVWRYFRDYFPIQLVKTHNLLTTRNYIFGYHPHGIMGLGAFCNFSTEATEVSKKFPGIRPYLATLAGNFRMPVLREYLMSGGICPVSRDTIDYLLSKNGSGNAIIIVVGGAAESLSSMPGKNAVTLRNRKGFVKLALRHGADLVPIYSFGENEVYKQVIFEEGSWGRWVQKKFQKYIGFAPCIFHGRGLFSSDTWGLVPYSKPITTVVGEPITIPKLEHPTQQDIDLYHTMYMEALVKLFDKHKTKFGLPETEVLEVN
Type: biochemical
Protocol: Insect Cell Expression and Membrane Preparation
Sf-9 insect cells were maintained in Grace's insect cell culture medium with 10% heated-inactivated fetal bovine serum, 1% Pluronic F-68 and 0.14 μg/ml Kanamycine sulfate at 27° C. in a shaker incubator. After infection with untagged baculovirus expressing human DGAT2 (hDGAT2) at multiplicity of infection (MOI) 3 for 48 hours, cells were harvested. Cell pellets were suspended in buffer containing 10 mM Tris-HCl pH 7.5, 1 mM EDTA, 250 mM sucrose and Complete Protease Inhibitor Cocktail (Sigma Aldrich), and sonicated on ice. Cell debris were removed by centrifugation at 2000×g for 15 minutes. Membrane fractions were isolated by ultracentrifugation (100,000×g), resuspended in the same buffer, and frozen (−80° C.) for later use. The protein concentration was determined with the Pierce™ BCA Protein Assay Kit (Thermo Fisher Scientific). Expression of protein levels was analyzed by immunoblotting with rabbit anti-DGAT2 antibody (Abcam, ab102831) and donkey anti-rabbit IgG H&L Alexa Fluor® 647 (Abcam, ab150075) followed by detection using Typhoon FLA9000 (GE Healthcare).
LC/MS/MS analyses were performed using Thermal Fisher's LX4-TSQ Vantage system. This system consists of an Agilent binary high-performance liquid chromatography (HPLC) pump and a TSQ Vantage triple quadrupole MS/MS instrument. For each sample, 2 μL samples from the top organic layer of in-plate liquid-liquid extraction were injected onto a Thermo Betabasic C4 column (2.1 mm×20 mm, 5 μm particle size). The samples were then eluted using the following conditions; mobile phase: Isopropanol:acetonitrile/10 mM ammonium formate=50/35/15 (v/v/v), flow rate: 0.8 mL/min, temperature: 25° C. Data was acquired in positive mode using a heated electrospray ionization (HESI) interface. The operational parameters for the TSQ Vantage MS/MS instrument were a spray voltage of 3000 V, capillary temperature of 280° C., vaporizer temperature 400° C., sheath gas 45 arbitrary unit, Aux gas 10 arbitrary units, S-lens 165 and collision gas 1.0 mTorr. […] (SRM) chromatograms of ^13C18-triolein (Q1: 920.8>Q3: 621.3) and internal standard ^13C21-triolein (Q1: 923.8>Q3: 617.3) were collected for 33 sec. The peak area was integrated by Xcalibur Quan software. The ratio between the ^13C18triolein generated in the reaction and spiked in internal standard ^13C21-triolein was used to generate percentage inhibition and IC50 values. Compound percentage inhibition was calculated by the following formula: Inhibition %=1−[(compound response−low control)/(high control−low control)]×100%. Potent compounds were titrated and IC50 were calculated by 4 parameter sigmoidal curve fitting formula.
DGAT2 Enzymatic Activity Assay
DGAT2 activity was determined by measuring the amount of enzymatic product ^13C18-triolein (^13C-1,2,3-Tri(cis-9-octadecenoyl)glycerol) using the membrane prep mentioned above. The assay was carried out in ABgene 384-well assay plates in a final volume of 25 μL at rt. The assay mixture contained the following: assay buffer (100 mM Tris·Cl, pH 7.0, 20 mM MgCl2, 5% ethanol), 25 μM of diolein, 5 μM of ^13C oleoyl-CoA and 8 ng/μL of DGAT2 membrane.

| SMILES | IC50 |
| --- | --- |
| CC(n1c(=O)n(-c2cc(OC(F)(F)F)ccc2F)c2cc(F)c(C(=O)NC3(C)CCS(=O)(=O)CC3)cc21)C(C)(C)O (single isomer, unassigned) [Example 70a, 6-fluoro-1-(2-fluoro-5-(trifluoromethoxy)phenyl)-3-(3-hydroxy-3-methylbutan-2-yl)-N-(4-methyl-1,1-dioxidotetrahydro-2H-thiopyran-4-yl)-2-oxo-2,3-dihydro-1H-benzo[d]imidazole-5-carboxamide] | 1 nM |
| CC(n1c(=O)n(-c2cc(OC(F)(F)F)ccc2F)c2cc(F)c(C(=O)NC3(C)CCS(=O)(=O)CC3)cc21)C(C)(C)O (single isomer, unassigned) [Example 70b, 6-fluoro-1-(2-fluoro-5-(trifluoromethoxy)phenyl)-3-(3-hydroxy-3-methylbutan-2-yl)-N-(4-methyl-1,1-dioxidotetrahydro-2H-thiopyran-4-yl)-2-oxo-2,3-dihydro-1H-benzo[d]imidazole-5-carboxamide] | 30.4 nM |
| CC(n1c(=O)n(-c2cc(OC(F)(F)F)ccc2F)c2ccc(C(=O)NC3(C)CCS(=O)(=O)CC3)cc21)C(C)(C)O (single isomer, unassigned) [Example 71a, 1-(2-fluoro-5-(trifluoromethoxy)phenyl)-3-(3-hydroxy-3-methylbutan-2-yl)-N-(4-methyl-1,1-dioxidotetrahydro-2H-thiopyran-4-yl)-2-oxo-2,3-dihydro-1H-benzo[d]imidazole-5-carboxamide] | 71 nM |
| CC(n1c(=O)n(-c2cc(OC(F)(F)F)ccc2F)c2ccc(C(=O)NC3(C)CCS(=O)(=O)CC3)cc21)C(C)(C)O (single isomer, unassigned) [Example 71b, 1-(2-fluoro-5-(trifluoromethoxy)phenyl)-3-(3-hydroxy-3-methylbutan-2-yl)-N-(4-methyl-1,1-dioxidotetrahydro-2H-thiopyran-4-yl)-2-oxo-2,3-dihydro-1H-benzo[d]imidazole-5-carboxamide] | 5.4 nM |
| CC(n1c(=O)n(-c2cc(OCC(F)F)ncc2F)c2ccc(C(=O)NC3(C)CCS(=O)(=O)CC3)cc21)C(C)(C)O (single isomer, unassigned) [Example 72a, 1-(2-(2,2-difluoroethoxy)-5-fluoropyridin-4-yl)-3-(3-hydroxy-3-methylbutan-2-yl)-N-(4-methyl-1,1-dioxidotetrahydro-2H-thiopyran-4-yl)-2-oxo-2,3-dihydro-1H-benzo[d]imidazole-5-carboxamide] | 6.4 nM |
| CC(n1c(=O)n(-c2cc(OCC(F)F)ncc2F)c2ccc(C(=O)NC3(C)CCS(=O)(=O)CC3)cc21)C(C)(C)O (single isomer, unassigned) [Example 72b, 1-(2-(2,2-difluoroethoxy)-5-fluoropyridin-4-yl)-3-(3-hydroxy-3-methylbutan-2-yl)-N-(4-methyl-1,1-dioxidotetrahydro-2H-thiopyran-4-yl)-2-oxo-2,3-dihydro-1H-benzo[a]imidazole-5-carboxamide] | 6.6 nM |
| CC(n1c(=O)n(-c2cc(OCC(F)F)ccc2F)c2ccc(C(=O)NC3(C)CCS(=O)(=O)CC3)cc21)C(C)(C)O (single isomer, unassigned) [Example 73a, 1-(5-(2,2-difluoroethoxy)-2-fluorophenyl)-3-(3-hydroxy-3-methylbutan-2-yl)-N-(4-methyl-1,1-dioxidotetrahydro-2H-thiopyran-4-yl)-2-oxo-2,3-dihydro-1H-benzo[a]imidazole-5-carboxamide] | 2.6 nM |
| CC(n1c(=O)n(-c2cc(OCC(F)F)ncc2F)c2cc(F)c(C(=O)NC3(C)CCS(=O)(=O)CC3)cc21)C(C)(C)O (single isomer, unassigned) [Example 74a, 1-(2-(2,2-difluoroethoxy)-5-fluoropyridin-4-yl)-6-fluoro-3-(3-hydroxy-3-methylbutan-2-yl)-N-(4-methyl-1,1-dioxidotetrahydro-2H-thiopyran-4-yl)-2-oxo-2,3-dihydro-1H-benzo[d]imidazole-5-carboxamide] | 6.1 nM |
| CC(n1c(=O)n(-c2cc(OCC(F)F)ncc2F)c2cc(F)c(C(=O)NC3(C)CCS(=O)(=O)CC3)cc21)C(C)(C)O (single isomer, unassigned) [Example 74b, 1-(2-(2,2-difluoroethoxy)-5-fluoropyridin-4-yl)-6-fluoro-3-(3-hydroxy-3-methylbutan-2-yl)-N-(4-methyl-1,1-dioxidotetrahydro-2H-thiopyran-4-yl)-2-oxo-2,3-dihydro-1H-benzo[d]imidazole-5-carboxamide] | 6.5 nM |
| CC(n1c(=O)n(-c2cc(OCC(F)F)ccc2F)c2cc(F)c(C(=O)NC3(C)CCS(=O)(=O)CC3)cc21)C(C)(C)O (single isomer, unassigned) [Example 75a, 1-(5-(2,2-difluoroethoxy)-2-fluorophenyl)-6-fluoro-3-(3-hydroxy-3-methylbutan-2-yl)-N-(4-methyl-1,1-dioxidotetrahydro-2H-thiopyran-4-yl)-2-oxo-2,3-dihydro-1H-benzo[d]imidazole-5-carboxamide] | 1.5 nM |
| CC(n1c(=O)n(-c2cc(OCC(F)F)ccc2F)c2cc(F)c(C(=O)NC3(C)CCS(=O)(=O)CC3)cc21)C(C)(C)O (single isomer, unassigned) [Example 75b, 1-(5-(2,2-difluoroethoxy)-2-fluorophenyl)-6-fluoro-3-(3-hydroxy-3-methylbutan-2-yl)-N-(4-methyl-1,1-dioxidotetrahydro-2H-thiopyran-4-yl)-2-oxo-2,3-dihydro-1H-benzo[d]imidazole-5-carboxamide] | 2.4 nM |
| CC(n1c(=O)n(-c2cccc(OC(F)(F)C(F)F)c2)c2ccc(C(=O)NC3(C)CS(=O)(=O)C3)cc21)C(C)(C)O (single isomer, unassigned) [Example 76a, 3-(3-hydroxy-3-methylbutan-2-yl)-N-(3-methyl-1,1-dioxidothietan-3-yl)-2-oxo-1-(3-(1,1,2,2-tetrafluoroethoxy)phenyl)-2,3-dihydro-1H-benzo[d]imidazole-5-carboxamide] | 80 nM |
| CC(n1c(=O)n(-c2cccc(OC(F)(F)C(F)F)c2)c2ccc(C(=O)NC3(C)CS(=O)(=O)C3)cc21)C(C)(C)O (single isomer, unassigned) [Example 76b, 3-(3-hydroxy-3-methylbutan-2-yl)-N-(3-methyl-1,1-dioxidothietan-3-yl)-2-oxo-1-(3-(1,1,2,2-tetrafluoroethoxy)phenyl)-2,3-dihydro-1H-benzo[d]imidazole-5-carboxamide] | 7.9 nM |
| CC(n1c(=O)n(-c2cccc(OC(F)(F)C(F)F)c2)c2ccc(C(=O)NC3(C)CCS(=O)(=O)CC3)cc21)C(C)(C)O (single isomer, unassigned) [Example 77a, 3-(3-hydroxy-3-methylbutan-2-yl)-N-(4-methyl-1,1-dioxidotetrahydro-2H-thiopyran-4-yl)-2-oxo-1-(3-(1,1,2,2-tetrafluoroethoxy)phenyl)-2,3-dihydro-1H-benzo[d]imidazole-5-carboxamide] | 5.6 nM |
| CC(n1c(=O)n(-c2cccc(OC(F)(F)C(F)F)c2)c2ccc(C(=O)NC3(C)CCS(=O)(=O)CC3)cc21)C(C)(C)O (single isomer, unassigned) [Example 77b, 3-(3-hydroxy-3-methylbutan-2-yl)-N-(4-methyl-1,1-dioxidotetrahydro-2H-thiopyran-4-yl)-2-oxo-1-(3-(1,1,2,2-tetrafluoroethoxy)phenyl)-2,3-dihydro-1H-benzo[d]imidazole-5-carboxamide] | 9.8 nM |
